Key:
Assay type in all cases: in vivo
[1] = test system: HORVS (Hordeum vulgare, summer barley); test: Pre-sowing application (7 days prior to sowing), crop compatibility; conditions: g of AS/ha: (A) 90, (B) 1200, (C) 140, (A)+(B)+(C) 90 + 1200 + 140
Procedure: (§1) In the standard design of the test, seeds of various broad-leaved weed and weed grass biotypes (origins) were sown in a 8-13 cm diameter pot filled with natural soil of a standard field soil (loamy silt; non-sterile) and covered with a covering soil layer of about 1 cm. The pots were then cultivated in a greenhouse (12-16 h of light, temperature day 20-22° C., night 15-18° C.) until the time of application. The pots were treated on a laboratory track sprayer with spray liquors comprising the compositions according to the invention, mixtures of the prior art or components used individually. Application of the active compounds or active compound combinations formulated as WG, WP, EC or otherwise was carried out at the appropriate growth stages of the plants. The application rate for the spray application was 100-600 l of water/ha. After the treatment, the plants were returned to the greenhouses.
(§2) About 3 weeks after the application, the soil action or/and foliar action was assessed visually according to a scale of 0-100% in comparison to an untreated comparative group: 0%=no noticeable effect compared to the untreated comparative group; 100%=full effect compared to the untreated comparative group. […]

[2] = test system: AVEFA (Avena fatua); test: PE action at different soil pH values, test method 10; conditions: PE application, g of AS/ha: (A) 90, (B) 1200, (C) 140, (A)+(B)+(C) 90 + 1200 + 140
Procedure: as §1
(§3) About 3 weeks after the application, the soil action or/and foliar action was assessed visually according to a scale of 0-100% in comparison to an untreated comparative group: 0%=no noticeable effect compared to the untreated comparative group; 100%=full effect compared to the untreated comparative group.

[3] = test system: MATCH (Matricaria chamomilla); test: Pre-emergence (PE) action against weeds, greenhouse trial, test method 1; conditions: PE application; g of AS/ha: (A) 90, (B) 1200, (C) 140, (A)+(B)+(C) 90 + 1200 + 140
Procedure: as §1, §2

[4] = test system: AVEFA (Avena fatua); test: as above; conditions: PE application; g of AS/ha: (A) 90, (B) 1200, (C) 140, (A)+(B)+(C) 90 + 1200 + 140
Procedure: as §1, §2

[5] = test system: AVEFA (Avena fatua); test: Pre-sowing application action against weeds (7 days prior to sowing), test method 5; conditions: application 7 days prior to sowing; g of AS/ha: (A) 90, (B) 1200, (C) 140, (A)+(B)+(C) 90 + 1200 + 140
Procedure: as §1, §3
(§4) (notes: the term “seeds” also includes vegetative propagation forms such as, for example, rhizome pieces; abbreviations used: h light=hours of illumination, g of AS/ha=gram of active substance per hectare, l/ha=liter per hectare, S=sensitive, R=resistant) • 1. Pre-emergence action against weeds: seeds of various broad-leaved weed and weed grass biotypes (origins) were sown in a 8-13 cm diameter pot filled with natural soil of a standard field soil (loamy silt; non-sterile) and covered with a covering soil layer of about 1 cm. The pots were then cultivated in a greenhouse (12-16 h of light, temperature day 20-22° C., night 15-18° C.) until the time of application. The pots were treated at the BBCH stage 00-10 of the seeds/plants on a laboratory track sprayer with spray liquors comprising the compositions according to the invention, mixtures or components used individually, as WG, WP, EC or other formulations. The application rate for the spray application was 100-600 l of water/ha. After the treatment, the plants were returned to the greenhouses and, when required, treated with fertilizer and watered. • 2. Post-emergence action against weeds: seeds of various broad-leaved weed and weed grass biotypes (origins) were sown in a 8-13 cm diameter pot filled with natural soil of a standard field soil (loamy silt; non-sterile) and covered with a covering soil layer of about 1 cm. The pots were then cultivated in a greenhouse (12-16 h of light, temperature day 20-22° C., night 15-18° C.) until the time of application. […]

[6] = test system: LOLPE (Lolium perenne); test: as above; conditions: application 7 days prior to sowing; g of AS/ha: (A) 90, (B) 1200, (C) 140, (A)+(B)+(C) 90 + 1200 + 140
Procedure: as §1, §3, §4

[7] = test system: VIOAR (Viola arvensis); test: Post-emergence (PO) action against weeds, greenhouse trial, test method 2; conditions: PO application; g of AS/ha: (A) 240, (B) 1200, (C) 140, (A)+(B)+(C) 240 + 1200 + 140
Procedure: as §1, §3
(§5) (notes: the term “seeds” also includes vegetative propagation forms such as, for example, rhizome pieces; abbreviations used: h light=hours of illumination, g of AS/ha=gram of active substance per hectare, l/ha=liter per hectare, S=sensitive, R=resistant) • 1. Pre-emergence action against weeds: seeds of various broad-leaved weed and weed grass biotypes (origins) were sown in a 8-13 cm diameter pot filled with natural soil of a standard field soil (loamy silt; non-sterile) and covered with a covering soil layer of about 1 cm. The pots were then cultivated in a greenhouse (12-16 h of light, temperature day 20-22° C., night 15-18° C.) until the time of application. The pots were treated at the BBCH stage 00-10 of the seeds/plants on a laboratory track sprayer with spray liquors comprising the compositions according to the invention, mixtures or components used individually, as WG, WP, EC or other formulations. The application rate for the spray application was 100-600 l of water/ha. After the treatment, the plants were returned to the greenhouses and, when required, treated with fertilizer and watered. • 2. Post-emergence action against weeds: seeds of various broad-leaved weed and weed grass biotypes (origins) were sown in a 8-13 cm diameter pot filled with natural soil of a standard field soil (loamy silt; non-sterile) and covered with a covering soil layer of about 1 cm. The pots were then cultivated in a greenhouse (12-16 h of light, temperature day 20-22° C., night 15-18° C.) until the time of application. The pots were treated at various BBCH stages between 11-25 of the seeds/plants, i.e. generally between two to three weeks after the start of the cultivation, on a laboratory track sprayer with spray liquors comprising the compositions according to the invention, mixtures or components used individually, as WG, WP, EC or other formulations. The application rate for the spray application was 100-600 l of water/ha. After the treatment, the plants were returned to the greenhouses and, when required, treated with fertilizer and watered. • 3. […]

[8] = test system: POAAN (Poa annua); test: as above; conditions: PO application; g of AS/ha: (A) 240, (B) 1200, (C) 140, (A)+(B)+(C) 240 + 1200 + 140
Procedure: as §1, §3, §5

[9] = test system: ALOMY sensitive (Alopecurus myosuroides); test: PE action on resistant weed biotypes, test method 8; conditions: PE application; g of AS/ha: (A) 90, (B) 1200, (C) 140, (A)+(B)+(C) 90 + 1200 + 140, iodosulfuron 10
Procedure: as §1, §3
(§6) (notes: the term “seeds” also includes vegetative propagation forms such as, for example, rhizome pieces; abbreviations used: h light=hours of illumination, g of AS/ha=gram of active substance per hectare, l/ha=liter per hectare, S=sensitive, R=resistant) • 1. Pre-emergence action against weeds: seeds of various broad-leaved weed and weed grass biotypes (origins) were sown in a 8-13 cm diameter pot filled with natural soil of a standard field soil (loamy silt; non-sterile) and covered with a covering soil layer of about 1 cm. The pots were then cultivated in a greenhouse (12-16 h of light, temperature day 20-22° C., night 15-18° C.) until the time of application. The pots were treated at the BBCH stage 00-10 of the seeds/plants on a laboratory track sprayer with spray liquors comprising the compositions according to the invention, mixtures or components used individually, as WG, WP, EC or other formulations. The application rate for the spray application was 100-600 l of water/ha. After the treatment, the plants were returned to the greenhouses and, when required, treated with fertilizer and watered. • 2. Post-emergence action against weeds: seeds of various broad-leaved weed and weed grass biotypes (origins) were sown in a 8-13 cm diameter pot filled with natural soil of a standard field soil (loamy silt; non-sterile) and covered with a covering soil layer of about 1 cm. The pots were then cultivated in a greenhouse (12-16 h of light, temperature day 20-22° C., night 15-18° C.) until the time of application. The pots were treated at various BBCH stages between 11-25 of the seeds/plants, i.e. generally between two to three weeks after the start of the cultivation, on a laboratory track sprayer with spray liquors comprising the compositions according to the invention, mixtures or components used individually, as WG, WP, EC or other formulations. The application rate for the spray application was 100-600 l of water/ha. After the treatment, the plants were returned to the greenhouses and, when required, treated with fertilizer and watered. • 3. Selective pre-emergence action: seeds of various crop species (origins) were sown in a 8-13 cm diameter pot filled with natural soil of a standard field soil (loamy silt; non-sterile) and covered with a covering soil layer of about 1 cm. The pots were then cultivated in a greenhouse (12-16 h of light, temperature day 20-22° C., night 15-18° C.) until the time of application. The pots were treated at the BBCH stage 00-10 of the seeds/plants on a laboratory track sprayer with spray liquors comprising the compositions according to the invention, mixtures or components used individually, as WG, WP, EC or other formulations. The application rate for the spray application was 100-600 l of water/ha. […]

[10] = test system: LOLSS resistant (Lolium species); test: as above; conditions: PE application; g of AS/ha: (A) 90, (B) 1200, (C) 140, (A)+(B)+(C) 90 + 1200 + 140, iodosulfuron 10
Procedure: as §1, §3, §6

[11] = test system: ALOMY resistant (Alopecurus myosuroides); test: as above; conditions: PE application; g of AS/ha: (A) 90, (B) 1200, (C) 140, (A)+(B)+(C) 90 + 1200 + 140, iodosulfuron 10
Procedure: as §1, §3, §6

[12] = test system: LOLSS sensitive (Lolium species); test: as above; conditions: PE application; g of AS/ha: (A) 90, (B) 1200, (C) 140, (A)+(B)+(C) 90 + 1200 + 140, iodosulfuron 10
Procedure: as §1, §3, §6

[13] = test system: HORVS (Hordeum vulgare, summer barley); test: Selective pre-emergence action (crop compatibility), greenhouse trial, test method 3; conditions: PE application; g of AS/ha: (A) 90, (B) 1200, (C) 140, (A)+(B)+(C) 90 + 1200 + 140
Procedure: as §1, §2

[14] = test system: HORVS (Hordeum vulgare, summer barley); test: Selective post-emergence action (crop compatibility), greenhouse trial, test method 4; conditions: PO application; g of AS/ha: (A) 240, (B) 1200, (C) 140, (A)+(B)+(C) 240 + 1200 + 140
Procedure: as §1, §3
(notes: the term “seeds” also includes vegetative propagation forms such as, for example, rhizome pieces; abbreviations used: h light=hours of illumination, g of AS/ha=gram of active substance per hectare, l/ha=liter per hectare, S=sensitive, R=resistant) • 1. Pre-emergence action against weeds: seeds of various broad-leaved weed and weed grass biotypes (origins) were sown in a 8-13 cm diameter pot filled with natural soil of a standard field soil (loamy silt; non-sterile) and covered with a covering soil layer of about 1 cm. The pots were then cultivated in a greenhouse (12-16 h of light, temperature day 20-22° C., night 15-18° C.) until the time of application. […]

Structure (SMILES): CCC(CC)Nc1c([N+](=O)[O-])cc(C)c(C)c1[N+](=O)[O-] [(B) pendimethalin, N-(1-ethylpropyl)-3,4-dimethyl-2,6-dinitrobenzenamine]
- activity HORVS (crop plant) [1]: 30%
- activity AVEFA pH 7.4 ([2]; soil pH 7.4): 10%
- activity AVEFA pH 8.4 ([2]; soil pH 8.4): 30%
- activity MATCH [3]: 18%
- activity AVEFA [4]: 40%
- activity AVEFA [5]: 70%
- activity LOLPE [6]: 0%
- activity VIOAR (visual, scale 0-100%) [7]: 30%
- activity POAAN (visual, scale 0-100%) [8]: 0%
- activity ALOMY sensitive [9]: 30%
- activity LOLSS resistant [10]: 0%
- activity ALOMY resistant [11]: 40%
- activity LOLSS sensitive [12]: 78%
- activity HORVS (crop plant) [13]: 50%
- activity HORVS (crop plant; visual, scale 0-100%) [14]: 10%
